Results reported in patent US20170315136A9, “BIOMARKER ASSAY OF NEUROLOGICAL CONDITION” (priority 2009, published 2017).

Key:
[1] = system: Female Sprague-Dawley rats; details: for GFAP levels / SBDP150 levels / UCH-L1 levels: biofluid, 30, 60, 90, 120 minutes following dosing
Protocol: Acute oral In vivo drug candidate screening for neurotoxicity. […] A total of four to eight animals of are used for each dose level investigated.
At 30, 60, 90, and 120 minutes following dosing, the rats are sacrificed by decapitation and blood is obtained by cardiac puncture. The levels of biofluid UCH-L1 and SBDP 150 and GFAP are analyzed by sandwich ELISA or western blot by using UCH-L1 and SBDP 150 and GFAP specific antibodies.

[2] = system: Mouse, rat cortical or hippocampal primary neurons; assay: In vitro drug candidate screening for neurotoxicity (ELISA of cell lysates); type: cell-based; details: primary neurons 21 DIV; Glutamate 0.01 to 1000 μM for 30 minutes, H2O2 0.001 to 1000 μM for 24 hours; lysates by ELISA
Protocol: In vitro drug candidate screening for neurotoxicity. Mouse, rat cortical or hippocampal primary neurons are cultured for 21 DIV, and the dose dependent responses of drugs are investigated. Cultured cells are exposed to various concentrations of: Glutamate (0.01 to 1000 μM) in 10 μM glycine both in HBSS; B) 0.01 to 100 μM Kainate in culture media; C) H2O2 (0.001 to 1000 μM) in culture media; C) Zinc (0.01 to 1000 μM) in culture media; D) U0126 (0.001 to 100 μM) in culture media; and E) and equal volume of culture media as a control. Glutamate treatment is performed for 30 minutes after which the cells are washed and the HBSS is replaced with culture media and analyzed. The remaining candidates are treated for 24 hours and analyzed. The levels of intracellular UCH-L1 and SBDP 145 are analyzed following cell lysis and screening of the lysates by ELISA using anti-UCH-L1 and SBDP 145 specific antibodies. The levels of UCH-L1 are increased following exposure particularly to Glutamate and H2O2.

| Compound | GFAP levels [1] | SBDP150 levels [1] | UCH-L1 levels [1] | further results |
| --- | --- | --- | --- | --- |
| N.N.[Cl][Pt][Cl] [Cisplatin, cisplatin] | increase | increase | increase |  |
| N[C@@H](CCC(=O)O)C(=O)O [Glutamate] |  |  |  | levels of intracellular UCH-L1 [2]: increased |
| OO [H2O2] |  |  |  | levels of intracellular UCH-L1 [2]: increased |
| CN1CC=C(c2ccccc2)CC1 [MPTP] | increase | increase | increase |  |
| C[C@]12N[C@H](Cc3ccccc31)c1ccccc12 [dizocilpine] | increase | increase | increase |  |
| C=C(C)[C@H]1CN[C@H](C(=O)O)[C@H]1CC(=O)O [kainic acid] | increase | increase | increase |  |
| CN[C@@H](C)Cc1ccccc1 [methamphetamine] |  |  |  | CSF concentration of GFAP ([1]; rat, in vivo): increase; CSF concentration of SBDP 150 ([1]; rat, in vivo): increase; CSF concentration of UCH-L1 ([1]; rat, in vivo): increase |
